Reference: patent US20160175229A1, “MICROPARTICLES WITH CYCLODEXTRINS HAVING A DUAL LEVEL OF ENCAPSULATION” (LCA DERMATECH, priority 2013, published 2016)

Assay: In vitro dermal absorption of hesperidin on Franz cells with skin explants (1st experimental part)
Format: in vitro ADME
Conditions: hesperidin 0.5 weight % of sample
Source text: The diffusion of a first active ingredient, hesperidin, in the different layers of the skin has been assessed based on the manner by which it has been applied on the skin, namely: • 1) in the case where the hesperidin has been encapsulated in microparticles according to the invention, and following Example 1 which has been detailed above, • 2) in the case where the hesperidin has been encapsulated in microparticles of polymers, • 3) in the case where the hesperidin has been provided in a free form, • 4) in the case where the hesperidin has been provided in the form of an inclusion complex with a cyclodextrin.
These 4 preparations have constituted 4 samples of cutaneous application of hesperidin. Hesperidin represented 0.5 weight % of the mass of each of these 4 samples.
Tests on these 4 samples have been carried out in accordance with the Directives: SCCS/1358/10 on date of Jun. 22, 2010 <<Basic criteria for the in vitro assessment of dermal absorption of cosmetic ingredient>>, OECD 28 of 2004. OECD being the abbreviation of <<Organization for Economic Co-operation and Development>> and SCCS being the abbreviation of <<Scientific Committee on Consumer Safety>>.
The material that has been used consisted of Franz cells. Skin explants, with an average surface area of 2.54 cm^2 and with a thickness comprised between 1.1 and 1.35 mm, have been used. […]

- amount of hesperidin cumulated in the dermis during 24 hours: 1.98 μg/cm^2
SMILES: COc1ccc([C@@H]2CC(=O)c3c(O)cc(O[C@@H]4O[C@H](CO[C@@H]5O[C@@H](C)[C@H](O)[C@@H](O)[C@H]5O)[C@@H](O)[C@H](O)[C@H]4O)cc3O2)cc1O [hesperidin in a free form, hesperidin]
